{"source": "PubChem BioAssay AID1259411", "about": "(Chemical Carcinogenesis Research Information System (CCRIS), 2018)", "tested_on": "rodent carcinogenicity bioassays, tumor incidence", "experiment": "CCRIS carcinogenicity studies", "conditions": "Dose: 0, Dose: 0", "summary_of_the_method": "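Archive of carcinogenicity, mutagenicity, tumor promotion and tumor inhibition results drawn from journals, NCI reports and other sources, expert-reviewed; covers 1985-2011 and is no longer updated.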", "note": "Calls of active or inactive are those of the source. The rule behind the calls is not given here.", "data": [{"smiles": "C=CC(=C)Cl", "values": [{"measurement": "carcinogen call", "setting": "Species: HAMSTER, Strain/Sex: SYRIAN/FEMALE, Route: INHALATION, 10, 50 PPM 6 HR/D 5 D/WK FOR 18 MO (STUDY DURATION: 18 MO), 10, 50 PPM 6 HR/D 5 D/WK FOR 18 MO (STUDY DURATION: 18 MO)", "value": "inactive; negative"}, {"measurement": "carcinogen call", "setting": "Species: HAMSTER, Strain/Sex: SYRIAN/MALE, Route: INHALATION, 10, 50 PPM 6HR/D 5 D/WK FOR 18 MO (STUDY DURATION: 18 MO), 10, 50 PPM 6HR/D 5 D/WK FOR 18 MO (STUDY DURATION: 18 MO)", "value": "inactive; negative"}, {"measurement": "carcinogen call", "setting": "Species: MOUSE, Strain/Sex: ALBINO/MALE, FEMALE, Route: INHALATION, 2.9, 19.18, 189 MG/M3 4 HR/D 6 D/WK FOR 7 MO (STUDY DURATION: 8 MO), 2.9, 19.18, 189 MG/M3 4 HR/D 6 D/WK FOR 7 MO (STUDY DURATION: 8 MO), Tumor Site: Type of Lesion: LUNG: TUMOR", "value": "active; positive"}, {"measurement": "carcinogen call", "setting": "Species: MOUSE, Strain/Sex: B6C3F1/FEMALE, Route: INHALATION, 12.8, 32, 80 PPM 6 HR/D 5 D/WK FOR 105 WK (STUDY DURATION: 106 WK), 12.8, 32, 80 PPM 6 HR/D 5 D/WK FOR 105 WK (STUDY DURATION: 106 WK), Tumor Site: Type of Lesion: LUNG: ALVEOLAR/BRONCHIOLAR ADENOMA, ALVEOLAR/BRONCHIOLAR CARCINOMA, CIRCULATORY SYSTEM: HEMANGIOMA, HEMANGIOSARCOMA, HAR, Tumor Site: Type of Lesion: LUNG: ALVEOLAR/BRONCHIOLAR ADENOMA, ALVEOLAR/BRONCHIOLAR CARCINOMA, CIRCULATORY SYSTEM: HEMANGIOMA, HEMANGIOSARCOMA, HAR", "value": "active; positive"}, {"measurement": "carcinogen call", "setting": "Species: MOUSE, Strain/Sex: B6C3F1/MALE, Route: INHALATION, 12.8, 32, 80 PPM 6 HR/D 5 D/WK FOR 105 WK (STUDY DURATION: 106 WK), 12.8, 32, 80 PPM 6 HR/D 5 D/WK FOR 105 WK (STUDY DURATION: 106 WK), Tumor Site: Type of Lesion: LUNG: ALVEOLAR/BRONCHIOLAR ADENOMA, ALVEOLAR/BRONCHIOLAR CARCINOMA, CIRCULATORY SYSTEM: HEMANGIOSARCOMA, HEMANGIOSARCOMA", "value": "active; positive"}, {"measurement": "carcinogen call", "setting": "Species: RAT, Strain/Sex: F344/FEMALE, Route: INHALATION, 12.8, 32, 80 PPM 6 HR/D 5 D/WK FOR 105 WK (STUDY DURATION: 106 WK), 12.8, 32, 80 PPM 6 HR/D 5 D/WK FOR 105 WK (STUDY DURATION: 106 WK), Tumor Site: Type of Lesion: ORAL CAVITY: SQUAMOUS CELL PAPILLOMA, SQUAMOUS CELL PAPILLOMA OR CARCINOMA, THYROID GLAND: FOLLICULAR CELL ADENOMA OR CA", "value": "active; positive"}, {"measurement": "carcinogen call", "setting": "Species: RAT, Strain/Sex: F344/MALE, Route: INHALATION, 12.8, 32, 80 PPM 6 HR/D 5 D/WK FOR 105 WK (STUDY DURATION: 106 WK), 12.8, 32, 80 PPM 6 HR/D 5 D/WK FOR 105 WK (STUDY DURATION: 106 WK), Tumor Site: Type of Lesion: ORAL CAVITY: SQUAMOUS CELL PAPILLOMA, SQUAMOUS PAPILLOMA OR CARCINOMA, THYROID GLAND: FOLLICULAR CELL ADENOMA OR CARCINO", "value": "active; positive"}, {"measurement": "carcinogen call", "setting": "Species: RAT, Strain/Sex: WISTAR/FEMALE, Route: INHALATION, 10, 50 PPM 6 HR/D 5D/WK FOR 24 MO AT 72 WK 73 FEMALE RATS IN LOW DOSE GROUP DIED DUE TO MALFUNCTION IN EXPOSURE APPAR, 10, 50 PPM 6 HR/D 5D/WK FOR 24 MO AT 72 WK 73 FEMALE RATS IN LOW DOSE GROUP DIED DUE TO MALFUNCTION IN EXPOSURE APPAR", "value": "inactive; negative"}, {"measurement": "carcinogen call", "setting": "Species: RAT, Strain/Sex: WISTAR/MALE, Route: INHALATION, 10, 50 PPM 6 HR/D 5D/WK FOR 24 MO AT 72 WK 82 MALE RATS IN LOW DOSE GROUP DIED DUE TO MALFUNCTION IN EXPOSURE APPARAT, 10, 50 PPM 6 HR/D 5D/WK FOR 24 MO AT 72 WK 82 MALE RATS IN LOW DOSE GROUP DIED DUE TO MALFUNCTION IN EXPOSURE APPARAT", "value": "inactive; negative"}]}, {"smiles": "C=Cc1ccncc1", "values": [{"measurement": "carcinogen call", "setting": "Species: MOUSE, Strain/Sex: STRAIN-A/FEMALE, Route: INTRAPERITONEAL, 10 UMOL IN 0.1 ML OLIVE OIL 3/WK FOR 20 DOSES (TOTAL DOSE: 200 UMOL) (STUDY DURATION: 27 WK)", "value": "inactive; negative"}]}, {"smiles": "OC[C@H]1O[C@@H]2O[C@H]3[C@H](O)[C@@H](O)[C@@H](O[C@H]4[C@H](O)[C@@H](O)[C@@H](O[C@H]5[C@H](O)[C@@H](O)[C@@H](O[C@H]6[C@H](O)[C@@H](O)[C@@H](O[C@H]7[C@H](O)[C@@H](O)[C@@H](O[C@H]8[C@H](O)[C@@H](O)[C@@H](O[C@H]1[C@H](O)[C@H]2O)O[C@@H]8CO)O[C@@H]7CO)O[C@@H]6CO)O[C@@H]5CO)O[C@@H]4CO)O[C@@H]3CO", "values": [{"measurement": "carcinogen call", "setting": "Species: MOUSE, Strain/Sex: CD-1/FEMALE, Route: ORAL, 25, 75, 225, 675 MG/KG/D IN DIET FOR 105 WK (STUDY DURATION: 105 WK), 25, 75, 225, 675 MG/KG/D IN DIET FOR 105 WK (STUDY DURATION: 105 WK)", "value": "inactive; negative"}, {"measurement": "carcinogen call", "setting": "Species: MOUSE, Strain/Sex: CD-1/MALE, Route: ORAL, 25, 75, 225, 675 MG/KG/D IN DIET FOR 93 WK (STUDY DURATION: 93 WK), 25, 75, 225, 675 MG/KG/D IN DIET FOR 93 WK (STUDY DURATION: 93 WK)", "value": "inactive; negative"}, {"measurement": "carcinogen call", "setting": "Species: RAT, Strain/Sex: F344/FEMALE, Route: ORAL, 2.5, 5% IN DIET FOR 104 WK (STUDY DURATION: 109 WK), 2.5, 5% IN DIET FOR 104 WK (STUDY DURATION: 109 WK)", "value": "inactive; negative"}, {"measurement": "carcinogen call", "setting": "Species: RAT, Strain/Sex: F344/FEMALE, Route: ORAL, 25, 75, 225, 675 MG/KG/D IN DIET FOR 130 WK (STUDY DURATION: 130 WK), 25, 75, 225, 675 MG/KG/D IN DIET FOR 130 WK (STUDY DURATION: 130 WK)", "value": "inactive; negative"}, {"measurement": "carcinogen call", "setting": "Species: RAT, Strain/Sex: F344/MALE, Route: ORAL, 2.5, 5% IN DIET FOR 104 WK (STUDY DURATION: 109 WK), 2.5, 5% IN DIET FOR 104 WK (STUDY DURATION: 109 WK)", "value": "inactive; negative"}, {"measurement": "carcinogen call", "setting": "Species: RAT, Strain/Sex: F344/MALE, Route: ORAL, 25, 75, 225, 675 MG/KG/D IN DIET FOR 122 WK (STUDY DURATION: 122 WK), 25, 75, 225, 675 MG/KG/D IN DIET FOR 122 WK (STUDY DURATION: 122 WK)", "value": "inactive; negative"}]}, {"smiles": "Cc1cc2c(nc1N)[nH]c1ccccc12", "values": [{"measurement": "carcinogen call", "setting": "Species: MOUSE, Strain/Sex: CDF1/FEMALE, Route: ORAL, 0.08% IN DIET FOR UP TO 685 D (STUDY DURATION: 685 D), Tumor Site: Type of Lesion: LIVER: HEPATOCELLULAR ADENOMA OR CARCINOMA, BLOOD VESSELS: HEMANGIOENDOTHELIOMA OR HEMANGIOENDOTHELIAL SARCOMA", "value": "active; positive"}, {"measurement": "carcinogen call", "setting": "Species: MOUSE, Strain/Sex: CDF1/MALE, Route: ORAL, 0.05% IN DIET FOR UP TO 685 D (STUDY DURATION: 685 D), Tumor Site: Type of Lesion: LIVER: HEPATOCELLULAR ADENOMA OR CARCINOMA, BLOOD VESSELS: HEMANGIOENDOTHELIOMA OR HEMANGIOENDOTHELIAL SARCOMA", "value": "active; positive"}, {"measurement": "carcinogen call", "setting": "Species: RAT, Strain/Sex: F344/MALE, Route: ORAL, 0.01, 0.02% IN DIET FOR 100 WK (STUDY DURATION: 100 WK), 0.01, 0.02% IN DIET FOR 100 WK (STUDY DURATION: 100 WK), Tumor Site: Type of Lesion: LIVER: HEPATOCELLULAR CARCINOMA, PANCREAS: ACINAR CELL ADENOMA, SKIN (SUBCUTIS): FIBROMA, Tumor Site: Type of Lesion: LIVER: HEPATOCELLULAR CARCINOMA, PANCREAS: ACINAR CELL ADENOMA, SKIN (SUBCUTIS): FIBROMA", "value": "active; positive"}]}]}
